Reference: ChEMBL document CHEMBL1201862, “PubChem BioAssay data set” (2004)
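In this assay, cells in 96-well plates receive the compound at five concentrations for 48 hours. Endpoints are linearly interpolated between the surrounding concentrations. GI50 = concentration required for 50% inhibition of growth.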 Active and inactive are the calls of the source. Cut-off read from the data, not from the text of the source: active = GI50 up to about 1.1 µM and inactive = higher.

How the values were obtained:
Assay in all cases: NCI anticancer screen, dose series, 48 h
MCF7 = tested on: MCF7
HOP-62 = tested on: HOP-62
MDA-MB-435 = tested on: MDA-MB-435
DU-145 = tested on: DU-145
UACC-62 = tested on: UACC-62
OVCAR-5 = tested on: OVCAR-5
NCI-H23 = tested on: NCI-H23
PC-3 = tested on: PC-3
EKVX = tested on: EKVX
NCI-H522 = tested on: NCI-H522
SK-MEL-5 = tested on: SK-MEL-5
HCT-15 = tested on: HCT-15
SW-620 = tested on: SW-620
SN12C = tested on: SN12C
MDA-MB-231 = tested on: MDA-MB-231
A549 = tested on: A549
M14 = tested on: M14
OVCAR-3 = tested on: OVCAR-3
UO-31 = tested on: UO-31
SR = tested on: SR

| SMILES | GI50 (MCF7) | GI50 (HOP-62) | GI50 (MDA-MB-435) | GI50 (DU-145) | GI50 (UACC-62) | GI50 (OVCAR-5) | GI50 (NCI-H23) | GI50 (PC-3) | GI50 (EKVX) | GI50 (NCI-H522) | GI50 (SK-MEL-5) | GI50 (HCT-15) | GI50 (SW-620) | GI50 (SN12C) | GI50 (MDA-MB-231) | GI50 (A549) | GI50 (M14) | GI50 (OVCAR-3) | GI50 (UO-31) | GI50 (SR) |
| --- | --- | --- | --- | --- | --- | --- | --- | --- | --- | --- | --- | --- | --- | --- | --- | --- | --- | --- | --- | --- |
| Cn1c2ccccc2n2c3ncccc3/c(=N/CCCC(=O)O)c(C#N)c12 | > 100 µM (inactive) | > 100 µM (inactive) | > 100 µM (inactive) | > 100 µM (inactive) | > 100 µM (inactive) | > 100 µM (inactive) | > 100 µM (inactive) | > 100 µM (inactive) | > 100 µM (inactive) | > 100 µM (inactive) | > 100 µM (inactive) | > 100 µM | > 100 µM (inactive) | > 100 µM (inactive) | > 100 µM (inactive) | > 100 µM (inactive) | > 100 µM (inactive) | > 100 µM (inactive) | > 100 µM (inactive) | > 100 µM (inactive) |
| CC(C)OP(=O)(OC(C)C)C(C)(C)O | > 100 µM (inactive) | > 100 µM (inactive) | > 100 µM (inactive) | > 100 µM (inactive) | > 100 µM (inactive) | > 100 µM (inactive) | > 100 µM (inactive) | > 100 µM (inactive) | > 100 µM (inactive) | > 100 µM (inactive) | > 100 µM (inactive) | > 100 µM | > 100 µM (inactive) | > 100 µM (inactive) | > 100 µM (inactive) | > 100 µM (inactive) | > 100 µM (inactive) | > 100 µM (inactive) | > 100 µM (inactive) | > 100 µM (inactive) |
| CCCCCCCCCCCCCCCCCCOCC(COCCOCC[N+]1(CCCCCC(=O)[O-])CCCC1)Oc1ncccn1 (stereo not given) | 4.45 µM (inactive) | 1.88 µM (inactive) | 8.79 µM (inactive) | 13.3 µM (inactive) | 3.35 µM (inactive) | 2.99 µM (inactive) | 4.88 µM (inactive) | 0.643 µM (active) | 14.6 µM (inactive) | 1.34 µM (inactive) | 4.22 µM (inactive) | 12.8 µM | 4.57 µM (inactive) | 4.44 µM (inactive) | 8.22 µM (inactive) | 3.95 µM (inactive) | 7.41 µM (inactive) | 5.2 µM (inactive) | 10.1 µM (inactive) | 3.18 µM (inactive) |
| O=[N+]([O-])c1ccc(OP(=O)(O)OCC2OC(CP(=O)(O)O)C(O)C2O)cc1 (stereo not given) | > 100 µM (inactive) | > 100 µM (inactive) | > 100 µM (inactive) | > 100 µM (inactive) | > 100 µM (inactive) | > 100 µM (inactive) | > 100 µM (inactive) | > 100 µM (inactive) | > 100 µM (inactive) | > 100 µM (inactive) | > 100 µM (inactive) | > 100 µM | > 100 µM (inactive) | > 100 µM (inactive) | > 100 µM (inactive) | > 100 µM (inactive) | > 100 µM (inactive) | > 100 µM (inactive) | > 100 µM (inactive) | > 100 µM (inactive) |
| CCOC(=O)CSc1nc(-c2ccccc2)c(C#N)c(=O)[nH]1 | > 100 µM (inactive) | > 100 µM (inactive) | > 100 µM (inactive) | > 100 µM (inactive) | > 100 µM (inactive) | > 100 µM (inactive) | > 100 µM (inactive) | > 100 µM (inactive) | > 100 µM (inactive) | 21.4 µM (inactive) | > 100 µM (inactive) | > 100 µM | > 100 µM (inactive) | > 100 µM (inactive) | > 100 µM (inactive) | > 100 µM (inactive) | > 100 µM (inactive) | > 100 µM (inactive) | > 100 µM (inactive) | > 100 µM (inactive) |
| COC12C(COC(=O)NCCO)C3=C(C(=O)C(C)=C(N)C3=O)N1CC1NC12 (stereo not given) | 16 µM (inactive) | 6.47 µM (inactive) | 140 µM (inactive) | 39.4 µM (inactive) | 8.11 µM (inactive) | 28.7 µM (inactive) | 4.94 µM (inactive) | 35.2 µM (inactive) | > 264 µM (inactive) | 14.5 µM (inactive) | 14.2 µM (inactive) | 170 µM | 16.7 µM (inactive) | 7.94 µM (inactive) | 233 µM (inactive) | 7.66 µM (inactive) | 11.5 µM (inactive) | 68.7 µM (inactive) | > 100 µM (inactive) | 35.2 µM (inactive) |
| CCn1c2ccc(C(=O)CCCN3CCCCC3)cc2c2cc(C(=O)CCCN3CCCCC3)ccc21 | 1.58 µM (inactive) | 3.3 µM (inactive) | 1.72 µM (inactive) | 5.33 µM (inactive) | 23 µM (inactive) | 6.95 µM (inactive) | 2.13 µM (inactive) | 2.13 µM (inactive) | 4.84 µM (inactive) | 1.56 µM (inactive) | 1.56 µM (inactive) | 1.86 µM | 1.01 µM (active) | 4.16 µM (inactive) | 1.83 µM (inactive) | 1.81 µM (inactive) | 2.04 µM (inactive) | 2.11 µM (inactive) | 5.32 µM (inactive) | 2.45 µM (inactive) |
| O=C(NNc1ccnc2cc(Cl)ccc12)/C(=C\c1ccccc1Cl)NC(=O)c1ccccc1 | 15.5 µM (inactive) | 19.2 µM (inactive) | 38.6 µM (inactive) | 55.7 µM (inactive) | 21 µM (inactive) | 39.7 µM (inactive) | 54.7 µM (inactive) | 36.1 µM (inactive) | 31.8 µM (inactive) | 18.5 µM (inactive) | 23.8 µM (inactive) | 48.4 µM | 37.9 µM (inactive) | 38.1 µM (inactive) | 74 µM (inactive) | 38.2 µM (inactive) | 31.3 µM (inactive) | 16.5 µM (inactive) | 38.9 µM (inactive) | 35 µM (inactive) |
| O=C(NNC(=S)Nc1ccccc1)c1csc(NC(=S)NC2CCCCC2)n1 | 64.9 µM (inactive) | > 100 µM (inactive) | 35.5 µM (inactive) | > 100 µM (inactive) | 38.9 µM (inactive) | > 100 µM (inactive) | > 100 µM (inactive) | 62.4 µM (inactive) | 20.1 µM (inactive) | 79.3 µM (inactive) | 17.4 µM (inactive) | 33.3 µM | 52.7 µM (inactive) | 91.4 µM (inactive) | 46.3 µM (inactive) | > 100 µM (inactive) | 69.8 µM (inactive) | 87.5 µM (inactive) | 16.1 µM (inactive) | 49.5 µM (inactive) |
| COc1cc(/C=C2\N=C(c3ccccc3)N(c3nc4c(OC)ccc(OC)c4s3)C2=O)ccc1O | 17.3 µM (inactive) | 90.8 µM (inactive) | 20.1 µM (inactive) | 28.8 µM (inactive) | 33 µM (inactive) | > 100 µM (inactive) | > 100 µM (inactive) | 32.4 µM (inactive) | > 100 µM (inactive) | 31.1 µM (inactive) | 54.8 µM (inactive) | 70.1 µM | 42.2 µM (inactive) | > 100 µM (inactive) | 45.7 µM (inactive) | 69.3 µM (inactive) | 88.5 µM (inactive) | 37.1 µM (inactive) | 76.7 µM (inactive) | 30 µM (inactive) |
| CCCC1(NC(=O)C(F)(F)F)CC(OC)OC2COC(c3ccccc3)OC21 (stereo not given) | 30 µM (inactive) | > 100 µM (inactive) | 18.1 µM (inactive) | 79.3 µM (inactive) | 55.7 µM (inactive) | > 100 µM (inactive) | 34.5 µM (inactive) | 32 µM (inactive) | 36.3 µM (inactive) | 31.5 µM (inactive) | 16.9 µM (inactive) | 55.7 µM | 53 µM (inactive) | > 100 µM (inactive) | 95.1 µM (inactive) | 28.3 µM (inactive) | 26.8 µM (inactive) | > 100 µM (inactive) | 35 µM (inactive) | 24.8 µM (inactive) |
| C[C@]12CCC(=O)C=C1CC[C@@H]1[C@@H]2CC[C@]2(C)C(=O)/C(=C/c3ccc([N+](=O)[O-])cc3)C[C@@H]12 | 0.621 µM (active) | 49.8 µM (inactive) | 6.04 µM (inactive) | 0.824 µM (active) | 3.36 µM (inactive) | > 100 µM (inactive) | 27.8 µM (inactive) | 7.87 µM (inactive) | 17.1 µM (inactive) | 4.66 µM (inactive) | 3.47 µM (inactive) | 10.5 µM | > 100 µM (inactive) | 46.3 µM (inactive) | 75.2 µM (inactive) | 8.36 µM (inactive) | 29.4 µM (inactive) | 8.91 µM (inactive) | 3.45 µM (inactive) | 2.9 µM (inactive) |
| Cc1nnc2sc(-c3ccc([N+](=O)[O-])o3)nn12 | 7.18 µM (inactive) | 15.2 µM (inactive) | 4.37 µM (inactive) | 15 µM (inactive) | 10.4 µM (inactive) | 18.5 µM (inactive) | 15.5 µM (inactive) | 14.7 µM (inactive) | 20.5 µM (inactive) | 3.03 µM (inactive) | 11.8 µM (inactive) | 5.06 µM | 4.85 µM (inactive) | 11.6 µM (inactive) | 14 µM (inactive) | 37.8 µM (inactive) | 9.91 µM (inactive) | 12.8 µM (inactive) | 15.2 µM (inactive) | 8.61 µM (inactive) |
| COc1cc2cc(C(=O)N3CC(CCl)c4ccc(N(C)C)cc43)[nH]c2c(OC)c1OC (stereo not given) | 0.0207 µM (active) | 0.128 µM (active) | 0.168 µM (active) | 0.0333 µM (active) | 0.0592 µM (active) | 0.0853 µM (active) | 0.0303 µM (active) | 0.0676 µM (active) | 0.173 µM (active) | 0.0127 µM (active) | 0.131 µM (active) | 0.145 µM | 0.12 µM (active) | 0.198 µM (active) | 0.234 µM (active) | 0.0194 µM (active) | 0.0923 µM (active) | 0.0959 µM (active) | 0.0381 µM (active) | 0.0151 µM (active) |
